Results taken from article PMC9997069 (Molecular Pharmaceutics, 2023).
Values joined by “and” are separate entries in the source; they are usually repeats but may differ in a detail not shown here. Identical values can stand only once. “Also recorded” adds a separate entry of the source. Like-named read-outs stand apart in the source and are kept apart here.

Experiments:
[1] = cited from earlier work
HSA [2] = target: T1, HSA (Homo sapiens, UniProt P02768); conditions: cited from earlier work
T1 construct: purchased Sigma-Aldrich

BSA = conditions: cited from earlier work
[3] = target: T2, human serum albumin (HSA) (Homo sapiens, UniProt P02768); test: Binding to HSA by Trp214 fluorescence quenching titration; conditions: for n^c ± 2σ number of binding sites / Kd / n^u ± 2σ: HSA; for n^c ± 2σ number of binding sites: inner filter corrected
T2 construct: purchased Sigma-Aldrich
Description: The emission fluorescence intensity was collected at 320 nm to avoid the fluorescence emission of the drugs. […] The excitation and emission slits were fixed at 1 and 5 nm, respectively. The step and dwell times were 1 nm and 0.1 s, respectively.
Enthalpy (ΔH) and entropy (ΔS) changes were obtained from the van′t Hoff equation [drawing 6] 6 and free energy (ΔG) changes were calculated from [drawing 7] 7 The van’t Hoff plots are shown in Figure 9, and the corresponding thermodynamic parameters are collected in Table 2. […] Proton-releasing processes in protein–ligand interactions generally result in a positive enthalpy.[64]

HSA [4] = target: T1, HSA; test: Competitive binding experiments with warfarin (site 1) and ibuprofen (site 2)
Description: The HSA binding experiments were performed at 310 K using [HSA]:[warfarin] and [HSA]:[ibuprofen] ratios of 1. […] Synchronous fluorescence spectroscopy experiments were performed to analyze the changes in the microenvironment polarity around fluorescent residues of HSA. When the value of the intervals (Δλ) between the excitation and emission wavelengths is set at 15 nm, synchronous fluorescence spectra offer characteristic information on tyrosine residues.[61]−[63]

cancer cell lines = system: cancer cell lines; parameters: method as in PMID 19690138; conditions: tested cancer cell lines; cited from earlier work
[5] = Protonation equilibria by UV-vis pH titration with DFT assignment; type: physicochemical; conditions: for pKa: aqueous solution
PLK2 and PLK3 = system: PLK2 and PLK3; parameters: method as in PMID 21459796, PMID 21809214, PMID 19690138; conditions: cited from earlier work
[6] = system: panel of 48 other kinases; parameters: method as in PMID 21459796, PMID 21809214, PMID 19690138; conditions: cited from earlier work
[7] = system: multiple leukemia cell lines; parameters: method as in PMID 26478211; conditions: cited from earlier work
xenograft mouse models = system: xenograft mouse models; parameters: method as in PMID 26478211; conditions: cited from earlier work
[8] = noncompartmental analysis, 1 hour infusion, 25 to 200 mg on day 1 and day 8 of a 21 day course
[9] = HSA/drug complex, van't Hoff plot 298-310 K
[10] = equilibrium between spectroscopic species 1 (charge 0/+1) and 2 (charge +2)

T2 sequence (P02768 25-609): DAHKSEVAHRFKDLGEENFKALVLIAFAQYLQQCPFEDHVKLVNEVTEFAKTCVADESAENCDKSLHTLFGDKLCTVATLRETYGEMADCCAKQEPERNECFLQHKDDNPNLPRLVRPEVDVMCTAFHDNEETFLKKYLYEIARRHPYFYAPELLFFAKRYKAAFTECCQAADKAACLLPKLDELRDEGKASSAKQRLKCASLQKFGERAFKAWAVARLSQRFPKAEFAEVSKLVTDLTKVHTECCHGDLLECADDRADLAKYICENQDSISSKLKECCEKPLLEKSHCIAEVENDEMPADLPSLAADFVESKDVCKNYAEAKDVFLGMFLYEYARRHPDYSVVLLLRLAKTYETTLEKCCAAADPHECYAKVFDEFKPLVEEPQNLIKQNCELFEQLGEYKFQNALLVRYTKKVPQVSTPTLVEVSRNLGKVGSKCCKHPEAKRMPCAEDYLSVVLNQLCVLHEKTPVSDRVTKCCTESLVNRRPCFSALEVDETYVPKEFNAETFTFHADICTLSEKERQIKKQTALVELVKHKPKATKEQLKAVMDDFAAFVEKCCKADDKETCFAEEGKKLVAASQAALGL
T1 sequence (P02768 25-609): as above

## CC[C@@H]1C(=O)N(C)c2cnc(Nc3ccc(C(=O)NC4CCN(C)CC4)cc3OC)nc2N1C1CCCC1 [BI-2536]
[1]; 1 hour intravenous infusion, 50, 60 and 70 mg on days 1 and 3 of a 21 day course
  terminal half-life (up to): 20 to 30 h
[1]
  volume of distribution: 751 to 2200 L
[1]; [8]
  half-life: around 25 hours
  half-life, max: 55.1 h
  half-life, min: 18.6 h
[1]; single intravenous infusion, 200 mg over 1 h
  terminal half-life: 15.4 h
HSA [2]; HSA/drug complex, 298 K
  ΔG^0: –33.6 kJ mol^–1
HSA [2]; HSA/drug complex, 303 K
  ΔG^0: –36.0 kJ mol^–1
HSA [2]; HSA/drug complex, 310 K
  ΔG^0: –39.2 kJ mol^–1
HSA [2]; HSA/drug complex
  ΔH^0: 103.8 kJ mol^–1
  ΔS^0: 461.3 J K^–1 mol^–1
HSA [2]
  Ka^c binding constant to HSA: 3.78 × 10^6 M^–1
  Ka^u binding constant to HSA: 11.4 × 10^7 M^–1
  n^c ± 2σ number of binding sites: 1.30 ± 0.09 and 1.22 ± 0.16 and 1.35 ± 0.16

## C[C@@H](Oc1cc(-c2cnn(C3CCNCC3)c2)cnc1N)c1c(Cl)ccc(F)c1Cl [Crizotinib]
BSA; 309 K, listed as crizotinib
  Ka^c binding constant: 3.4 × 10^4 M^–1
BSA; 309 K
  Ka^c binding constant: 3.43 × 10^4 M^–1

## C#Cc1cccc(Nc2ncnc3cc(OCCOC)c(OCCOC)cc23)c1 [Erlotinib]
BSA; 307 K
  Ka^c binding constant: 3.44 × 10^2 M^–1

## C[C@@H](Oc1cc(-n2cnc3ccc(CN4CCN(C)CC4)cc32)sc1C(N)=O)c1ccccc1C(F)(F)F [GSK461364]
[3]; 310 K
  binding constant to HSA, times lower than for RO3280: 25 times
  n^c ± 2σ number of binding sites: 1.11 ± 0.05
[3]; 298 K
  n^c ± 2σ number of binding sites: 1.19 ± 0.06
[3]; 298 K, pH 7.4, inner filter corrected, read-out: Ka^c binding constant (converted)
  Kd: 4.81 µM
[3]; 298 K, without inner filter corrections
  n^u ± 2σ: 1.29 ± 0.10
[3]; 298 K, without inner filter corrections, read-out: log Ka^u ± 2σ (converted)
  Kd: 0.871 µM
[3]; 303 K
  n^c ± 2σ number of binding sites: 1.15 ± 0.03
[3]; 303 K, pH 7.4, inner filter corrected, read-out: Ka^c binding constant (converted)
  Kd: 8.26 µM
[3]; 303 K, without inner filter corrections
  n^u ± 2σ: 1.28 ± 0.05
[3]; 303 K, without inner filter corrections, read-out: log Ka^u ± 2σ (converted)
  Kd: 1.07 µM
[3]; 310 K, pH 7.4, inner filter corrected, read-out: Ka^c binding constant (converted)
  Kd: 11.4 µM
[3]; 310 K, without inner filter corrections
  n^u ± 2σ: 1.23 ± 0.06
[3]; 310 K, without inner filter corrections, read-out: Ka^u binding constant to HSA (converted)
  Kd: 1.79 µM
[3]; HSA/drug complex, 298 K
  ΔG^0: –30.22 kJ mol^–1
[3]; HSA/drug complex, 303 K
  ΔG^0: –29.80 kJ mol^–1
[3]; HSA/drug complex, 310 K
  ΔG^0: –29.20 kJ mol^–1
[3]; [9]
  ΔH^0: –55.61 kJ mol^–1
  ΔS^0: –85.20 J K^–1 mol^–1
HSA [4]; 310 K, [HSA]:[warfarin] ratio of 1, 5 μM, read-out: binding constant to HSA in the presence of warfarin (converted)
  Kd: 1040 µM
HSA [4]; competitive experiments with warfarin and ibuprofen
  preferential binding site into HSA: site 1; also recorded: site I
Cancer cell lines
  cell growth inhibition: causes cell growth inhibition in a high percentage of tested cancer cell lines
[5]; [10]
  pKa: 1.4
PLK2 and PLK3
  selectivity for PLK1 than for PLK2 and PLK3: at least 390 fold
[6]
  selectivity for PLK1 than for a panel of 48 other kinases: 1000 fold

## C=CC(=O)N1CCC[C@@H](n2nc(-c3ccc(Oc4ccccc4)cc3)c3c(N)ncnc32)C1 [Ibrutinib]
HSA [2]; HSA, 310 K
  Ka^c binding constant: 7.2 × 10^3 M^–1
  ΔG^0: –25.09 kJ mol^–1
HSA [2]; HSA
  ΔH^0: –16.91 kJ mol^–1
  ΔS^0: 26.44 J K^–1 mol^–1

## Cc1ccc(F)c(NC(=O)Nc2ccc(-c3cccc4[nH]nc(N)c34)cc2)c1 [Linifanib]
BSA; 308 K
  Ka^c binding constant: 4.3 × 10^3 M^–1

## Cc1cc(Nc2cc(N3CCN(C)CC3)nc(Sc3ccc(NC(=O)C4CC4)cc3)n2)[nH]n1 [MK-0457]
HSA [2]; HSA, 310 K
  Ka^c binding constant: 1.05 × 10^4 M^–1
  ΔG^0: –23.02 kJ mol^–1
HSA [2]; HSA
  ΔH^0: –130.63 kJ mol^–1
  ΔS^0: –343.89 J K^–1 mol^–1

## Cc1cc(C(=O)Nc2nc3cccc(Cl)c3n2[C@@H]2CCCCN(C(=O)/C=C/CN(C)C)C2)ccn1 [Nazartinib (EGF816), Nazartinib]
HSA [2]; HSA, 310 K
  Ka^c binding constant: 2.67 × 10^4 M^–1
  ΔG^0: –26.27 kJ mol^–1
HSA [2]; HSA
  ΔH^0: –3.22 kJ mol^–1
  ΔS^0: 74.36 J K^–1 mol^–1

## CCOc1cc2ncc(C#N)c(Nc3ccc(OCc4ccccn4)c(Cl)c3)c2cc1NC(=O)/C=C/CN(C)C [Neratinib]
HSA [2]; HSA, 310 K
  Ka^c binding constant: 2.25 × 10^5 M^–1

## COc1cc(C(=O)NC2CCN(C)CC2)ccc1Nc1ncc2c(n1)N(C1CCCC1)CC(F)(F)C(=O)N2C [RO3280]
[7]
  in vitro cellular potency: high in vitro cellular potency
[5]; [10]
  pKa: 12.6
[5]; equilibrium to species with charge +3, acidic pH
  pKa: 3.8
[5]; pH 7.4, aqueous solution
  charge state at the physiological pH: +2
Xenograft mouse models
  antitumor activity: significant level of antitumor activity

## CNC(=O)c1cc(Oc2ccc(NC(=O)Nc3ccc(Cl)c(C(F)(F)F)c3)cc2)ccn1 [Sorafenib]
HSA [2]; HSA, 305 K
  Ka^c binding constant: 2.64 × 10^4 M^–1
  ΔG^0: –25.8 kJ mol^–1
HSA [2]; HSA
  ΔH^0: –28.2 kJ mol^–1
  ΔS^0: –7.87 J K^–1 mol^–1

## COc1cc2c(Nc3ccc(Br)cc3F)ncnc2cc1OCC1CCN(C)CC1 [Vandetanib]
HSA [2]; HSA, 303 K
  Ka^c binding constant: 7.63 × 10^3 M^–1
  ΔG^0: –22.56 kJ mol^–1
HSA [2]; HSA
  ΔH^0: –6.57 kJ mol^–1
  ΔS^0: 52.76 J K^–1 mol^–1

## C[C@H](Cn1cnc2c(N)ncnc21)OCP(=O)(O)O [tenofovir]
HSA [2]; 310 K
  binding constant to HSA: 5.7 × 10^4 M^–1
